Read-outs that look alike come from different tables or passages of the source. Where no end group is shown, it is not given here.
How the values were obtained:
TA3Ha cells [1] = experiment: Tumor growth suppression by vaccination with Tn antigen (A-OSM or A-BSM), Ribi adjuvant and cyclophosphamide; type: in vivo, mouse; conditions: CP only; 700 TA3Ha cells i.p.
Description: Tumor growth suppression was tested using A-OSM or A-BSM with Ribi adjuvant, which is essentially composed of trehalose dimycolate and monophosphoryl Lipid A, the effective component of mycobacteria known to stimulate immune response of T as well as B cells (Ribi et al., Clin. Immunol. Newsletter 6:33-36, 1985). A-OSM and A-BSM were produced by treatment with neuraminidase as described above. […] For example, 100 μg of A-OSM or A-BSM were mixed with 500 μg of complete Ribi adjuvant and injected subcutaneously at day −7 (i.e., 7 days before tumor cell inoculation). On day 0, 700 TA3Ha cells were injected intraperitoneally. On day 1, CP (75 mg/kg) was injected intraperitoneally. On days 2, 5, 12, and 19, 100 μg antigen/500 μg Ribi adjuvant complex was injected subcutaneously. Another experimental group was injected with CP-Ribi on days 2, 5, 12, and 19, respectively.

TA3Ha cells [2] = experiment: Synthetic Tn-KLH/Ribi tumor vaccine, TA3Ha challenge i.p.; type: in vivo, mouse; conditions: control groups; TA3Ha i.p. day 0, CP day 1
Description: Mice were preimmunized at day −7 with 50 μg of synthetic Tn/Ribi, s.c. and were challenged with TA3Ha cells, i.p. at day 0.
Mice were immunized with 30 μg of monomeric Tn-KLH/Ribi or dimeric Tn-KLH/Ribi on days −7, 2, 5, 12 and 19.

V alpha 14 NKT cells = conditions: cited from earlier work
V alpha 14 TCR = conditions: cited from earlier work
[3] = system: B16 melanoma and mouse colonic carcinoma Colon 26; conditions: mice bearing various tumors; cited from earlier work
antibody to Le^y = conditions: cited from earlier work
MHC Class I Kb / Db = conditions: peptides binding MHC Class I Kb; cited from earlier work
[4] = system: B16 melanoma cells of clones F-1 or F-10; experiment: Active immunization with GM3 lactone, B16 melanoma development; type: in vivo; conditions: immunized BALB/c mice
Description: Ten BALB/c mice were immunized with native GM3 or GM3 lactone coated on acid-treated Salmonella minnesota. Immunization was carried out by intravenous injection of 200 μl of the GM3 or GM3 lactone preparation once per week for 4 weeks. Subsequently, 1.0×10^5 B16 melanoma cells of clones F-1 or F-10, were subcutaneously injected into the back of the mice and tumor growth was observed after 20 days. As controls, other glycolipids, such as paragloboside coated on acid-treated Salmonella minnesota, and Salmonella minnesota alone, were used in the same amounts as discussed above.
In the table, the numbers indicate the number of animal which died over the total number of animals immunized.

[5] = cited from earlier work

Compound: O=P1(N(CCCl)CCCl)NCCCO1 (stereo not shown) [CP, Cyclophosphamide]
- most animals had died by (TA3Ha cells [1]): 20 to 30 days
- tumor growth suppression (TA3Ha cells [1]): some tumor growth suppression
- survival of tumor challenge (TA3Ha cells [2]): did not survive tumor challenge

Compound: CCCCCCCCCCCCCCCCCCCCCCCCCC(=O)N[C@@H](CO[C@H]1O[C@H](CO)[C@H](O)[C@H](O)[C@H]1O)[C@H](O)[C@H](O)CCCCCCCCCCCCCC [alpha-GalCer]
- proliferation of V alpha 14 NKT cells (V alpha 14 NKT cells): stimulate proliferation
- binding to V alpha 14 TCR (V alpha 14 TCR): bind V alpha 14 TCR
- tumor growth and metastasis [3]: abrogated tumor growth and metastasis

Compound: APWLYGPA [peptide selected from phage display library with antibody to Le^y]
- binding of the antibody to Le^y (antibody to Le^y): inhibited binding

Compound: Di-Gal (Galα1-4Gal) oligosaccharide linked to N or P of FAPGNYPAL: di-Gal linked to MHC Class I Kb binding peptide FAPGNYPAL (also: di-Gal (Galα1-4Gal) linked to N or P)
- cytotoxic T cell response to the oligosaccharide residue (MHC Class I Kb / Db): elicited a cytotoxic T cell response

Compound: Di-Gal (Galα1-4Gal) oligosaccharide linked to V or Q of RGYVYQGL: di-Gal linked to MHC Class I Kb binding peptide RGYVYQGL (also: di-Gal (Galα1-4Gal) linked to V or Q)
- cytotoxic T cell response to the oligosaccharide residue (MHC Class I Kb / Db): elicited a cytotoxic T cell response

Compound: GM3
- tumor growth reduced [4]: not

Compound: GM3 lactone
- stability of the structure ([5]; acidic to neutral pH): relatively stable
- stability of the structure ([5]; alkaline pH): unstable
- tumor growth reduced [4]: reduced

Source: US20030170249A1, “Vaccines directed to cancer-associated carbohydrate antigens” (priority 1999, published 2003)
